Measurements taken from PubChem BioAssay AID504573 (Southern Research Specialized Biocontainment Screening …, 2011).

System: host cell cytotoxicity, % cell control, 5% serum
Test: host cell cytotoxicity, R5 fusion assay cells, dose response, cytotoxicity control for HIV-1 antiviral lead project, CCR5-tropic fusion assay, 5% serum, set 2 (AID 504573)

Question: With `Cc1c2c(=O)n(-c3nc4ccccc4s3)nc-2cc(O)n1Cc1ccccc1Cl` as the molecule, how does the CC50 read?
Answer: Its CC50 is 4.34 µM.

Question: How did the CC50 turn out when `Cc1c2c(=O)n(-c3nc4ccccc4s3)nc-2cc(O)n1CCC(C)C` was run?
Answer: Its CC50 is 5.64 µM.

Question: How did the CC50 turn out when `Cc1c2c(=O)n(-c3nc4ccccc4s3)nc-2cc(O)n1CCc1cccs1` was run?
Answer: The CC50 was 5.51 µM.

Question: Which CC50 does the source give for `Cc1c2c(=O)n(-c3nc4ccccc4s3)nc-2cc(O)n1Cc1ccncc1` here?
Answer: Its CC50 is 5.07 µM.

Question: Which CC50 does the source give for `Cc1c2c(=O)n(-c3nc4ccccc4s3)nc-2cc(O)n1Cc1cccs1` here?
Answer: The CC50 was 5.94 µM.

Question: With `Cc1c2c(=O)n(-c3nc4ccccc4s3)nc-2cc(O)n1CCc1ccc(O)cc1` as the molecule, how does the CC50 read?
Answer: Its CC50 is 3.74 µM.

Question: `Cc1c2c(=O)n(-c3nc4ccccc4s3)nc-2cc(O)n1Cc1ccc(F)cc1` was tested. Which CC50 did it give?
Answer: Its CC50 is 4.4 µM.

Question: For `Cc1c2c(=O)n(-c3nc4ccccc4s3)nc-2cc(O)n1Cc1cccnc1`, which CC50 is on record?
Answer: The CC50 was 3.89 µM.

Question: For `COc1ccc(CCn2c(O)cc3nn(-c4nc5ccccc5s4)c(=O)c-3c2C)cc1`, which CC50 is on record?
Answer: Its CC50 is 7.2 µM.

Question: With `COc1ccc(Cn2c(O)cc3nn(-c4nc5ccccc5s4)c(=O)c-3c2C)cc1` as the molecule, how does the CC50 read?
Answer: The CC50 was 5.15 µM.

Question: Which CC50 does the source give for `Cc1c2c(=O)n(-c3nc4ccccc4s3)nc-2cc(O)n1Cc1ccccc1` here?
Answer: Its CC50 is 5.4 µM.

Question: Which CC50 does the source give for `COc1ccccc1Cn1c(O)cc2nn(-c3nc4ccccc4s3)c(=O)c-2c1C` here?
Answer: Its CC50 is 8.08 µM.

Question: For `Cc1c2c(=O)n(-c3nc4ccccc4s3)nc-2cc(O)n1C1CC1`, which CC50 is on record?
Answer: Its CC50 is 4.98 µM.
